Data: PMC9934367, “Functional impact of subunit composition and compensation on Drosophila melanogaster nicotinic receptors–targets of neonicotinoids” (PLOS Genetics, 2023)

Test system: D. melanogaster nAChRs
Assay: Comparison of agonist activity between nAChRs expressed in X. laevis oocytes (one-way ANOVA, Kruskal-Wallis)
Type: cell-based
How it was run: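 Agonist pEC50 values, derived from Hill fits of normalised peak currents, were compared across receptors by one-way ANOVA or Kruskal-Wallis. Currents came from oocytes clamped at −100 mV and perfused with atropine-containing saline (0.5 μM), 3–4 days after cRNA injection of fly nAChR subunits and co-factors.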

## CC(=O)OCC[N+](C)(C)C [ACh, acetylcholine]
Dα1/Dα2/Dα3/Dβ1/Dβ2 vs. Dα1/Dα2/Dβ1/Dβ2/Dβ3
  Difference of pEC50 values, nAChRs compared: 0.07
Dα1/Dα2/Dα3/Dβ1/Dβ2 vs. Dα1/Dα3/Dα4/Dβ1/Dβ2
  Difference of pEC50 values, nAChRs compared: -0.30
Dα1/Dα2/Dα3/Dβ1/Dβ2 vs. Dα1/Dα3/Dβ1/Dβ2/Dβ3
  Difference of pEC50 values, nAChRs compared: -1.34
Dα1/Dα2/Dα3/Dβ1/Dβ2 vs. Dα2/Dα3/Dα4/Dβ1/Dβ2
  Difference of pEC50 values, nAChRs compared: -1.00
Dα1/Dα2/Dα3/Dβ1/Dβ2 vs. Dα2/Dα3/Dβ1/Dβ2/Dβ3
  Difference of pEC50 values, nAChRs compared: -1.52
Dα1/Dα2/Dα3/Dβ1 vs. Dα1/Dα2/Dα3/Dβ1/Dβ2
  Difference of pEC50 values: 0.94
Dα1/Dα2/Dα3/Dβ1 vs. Dα1/Dα2/Dβ1/Dβ2
  Difference of pEC50 values: 0.51
Dα1/Dα2/Dα3/Dβ1 vs. Dα1/Dα3/Dβ1/Dβ2
  Difference of pEC50 values: -1.00
Dα1/Dα2/Dα3/Dβ1 vs. Dα1/Dβ1/Dβ2
  Difference of pEC50 values: 0.68
Dα1/Dα2/Dα3/Dβ1 vs. Dα3/Dβ1/Dβ2
  Difference of pEC50 values: -0.76
Dα1/Dα2/Dβ1/Dβ2 vs. Dα2/Dα3/Dβ1/Dβ2
  Difference of pEC50 values: -1.07
Dα1/Dα2/Dβ1 vs. Dα1/Dα2/Dα3/Dβ1
  Difference of pEC50 values: -1.29
Dα1/Dα2/Dβ1 vs. Dα1/Dα2/Dα3/Dβ1/Dβ2
  Difference of pEC50 values: -0.35
Dα1/Dα2/Dβ1 vs. Dα1/Dα2/Dβ1/Dβ2
  Difference of pEC50 values: -0.78
Dα1/Dα2/Dβ1 vs. Dα1/Dα3/Dβ1/Dβ2
  Difference of pEC50 values: -2.29
Dα1/Dα2/Dβ1 vs. Dα2/Dα3/Dβ1
  Difference of pEC50 values: -1.31
Dα1/Dα2/Dβ1 vs. Dα2/Dα3/Dβ1/Dβ2
  Difference of pEC50 values: -1.85
Dα1/Dα2/Dβ1 vs. Dα3/Dβ1/Dβ2
  Difference of pEC50 values: -2.05
Dα1/Dα3/Dβ1/Dβ2 vs. Dα1/Dα2/Dα3/Dβ1/Dβ2
  Difference of pEC50 values: 1.94
Dα1/Dα3/Dβ1/Dβ2 vs. Dα1/Dα2/Dβ1/Dβ2
  Difference of pEC50 values: 1.51
Dα1/Dα3/Dβ1 vs. Dα1/Dα2/Dα3/Dβ1/Dβ2
  Difference of pEC50 values: 1.36
Dα1/Dα3/Dβ1 vs. Dα1/Dα2/Dβ1
  Difference of pEC50 values: 1.71
Dα1/Dα3/Dβ1 vs. Dα1/Dα2/Dβ1/Dβ2
  Difference of pEC50 values: 0.93
Dα1/Dα3/Dβ1 vs. Dα1/Dβ1/Dβ2
  Difference of pEC50 values: 1.10
Dα1/Dα3/Dβ1 vs. Dα2/Dα3/Dβ1
  Difference of pEC50 values: 0.40
Dα1/Dα3/Dβ1 vs. Dα3/Dβ1/Dβ2
  Difference of pEC50 values: -0.34
Dα1/Dβ1/Dβ2 vs. Dα1/Dα2/Dα3/Dβ1/Dβ2
  Difference of pEC50 values: 0.26
Dα1/Dβ1/Dβ2 vs. Dα1/Dα3/Dβ1/Dβ2
  Difference of pEC50 values: -1.68
Dα1/Dβ1/Dβ2 vs. Dα2/Dα3/Dβ1/Dβ2
  Difference of pEC50 values: -1.24
Dα1/Dβ1/Dβ2 vs. Dα3/Dβ1/Dβ2
  Difference of pEC50 values: -1.44
Dα1/Dβ1 vs. Dα1/Dα2/Dα3/Dβ1/Dβ2
  Difference of pEC50 values: 0.75
Dα1/Dβ1 vs. Dα1/Dα2/Dβ1
  Difference of pEC50 values: 1.10
Dα1/Dβ1 vs. Dα1/Dα2/Dβ1/Dβ2
  Difference of pEC50 values: 0.32
Dα1/Dβ1 vs. Dα1/Dα3/Dβ1/Dβ2
  Difference of pEC50 values: -1.19
Dα1/Dβ1 vs. Dα1/Dβ1/Dβ2
  Difference of pEC50 values: 0.49
Dα1/Dβ1 vs. Dα2/Dα3/Dβ1
  Difference of pEC50 values: -0.21
Dα1/Dβ1 vs. Dα2/Dα3/Dβ1/Dβ2
  Difference of pEC50 values: -0.75
Dα1/Dβ1 vs. Dα3/Dβ1
  Difference of pEC50 values: -0.90
Dα1/Dβ1 vs. Dα3/Dβ1/Dβ2
  Difference of pEC50 values: -0.95
Dα2/Dα3/Dβ1/Dβ2 vs. Dα1/Dα2/Dα3/Dβ1/Dβ2
  Difference of pEC50 values: 1.50
Dα2/Dα3/Dβ1 vs. Dα1/Dα2/Dα3/Dβ1
  Difference of pEC50 values: 0.02
Dα2/Dα3/Dβ1 vs. Dα1/Dα2/Dα3/Dβ1/Dβ2
  Difference of pEC50 values: 0.96
Dα2/Dα3/Dβ1 vs. Dα1/Dα3/Dβ1/Dβ2
  Difference of pEC50 values: -0.98
Dα2/Dα3/Dβ1 vs. Dα1/Dβ1/Dβ2
  Difference of pEC50 values: 0.70
Dα2/Dα3/Dβ1 vs. Dα3/Dβ1/Dβ2
  Difference of pEC50 values: -0.74
Dα3/Dβ1/Dβ2 vs. Dα1/Dα2/Dα3/Dβ1/Dβ2
  Difference of pEC50 values: 1.70
Dα3/Dβ1/Dβ2 vs. Dα1/Dα2/Dβ1/Dβ2
  Difference of pEC50 values: 1.27
Dα3/Dβ1/Dβ2 vs. Dα1/Dα3/Dβ1/Dβ2
  Difference of pEC50 values: -0.24
Dα3/Dβ1/Dβ2 vs. Dα2/Dα3/Dβ1/Dβ2
  Difference of pEC50 values: 0.20
Dα3/Dβ1 vs. Dα1/Dα2/Dα3/Dβ1
  Difference of pEC50 values: 0.71
Dα3/Dβ1 vs. Dα1/Dα2/Dα3/Dβ1/Dβ2
  Difference of pEC50 values: 1.65
Dα3/Dβ1 vs. Dα1/Dα2/Dβ1
  Difference of pEC50 values: 2.00
Dα3/Dβ1 vs. Dα1/Dα2/Dβ1/Dβ2
  Difference of pEC50 values: 1.22
Dα3/Dβ1 vs. Dα1/Dα3/Dβ1
  Difference of pEC50 values: 0.29
Dα3/Dβ1 vs. Dα1/Dα3/Dβ1/Dβ2
  Difference of pEC50 values: -0.29
Dα3/Dβ1 vs. Dα1/Dβ1/Dβ2
  Difference of pEC50 values: 1.39
Dα3/Dβ1 vs. Dα2/Dα3/Dβ1
  Difference of pEC50 values: 0.69
Dα3/Dβ1 vs. Dα3/Dβ1/Dβ2
  Difference of pEC50 values: -0.05
